What all share (experiment): NCI-60 cell line screen, 48 h
The subject of assay [1] is RPMI-8226 leukemia.
Assay [2] concerns SN12C renal.
Assay [3] relates to HOP-62 NSCLC.
The test system of assay [4] is TK-10 renal.
Assay [5] has as its system EKVX NSCLC.
The subject of assay [6] is SK-OV-3 ovarian.
The test system of assay [7] is K-562 leukemia.
The test system of assay [8] is UACC-62 melanoma.
For assay [9], the system named is KM12 colon.
For assay [10], the system named is HT29 colon.

Where “and” joins values, the source holds several entries; their conditions need not be identical. Identical values can stand only once.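 1) Cells in 96-well plates. 2) Compound, 48 h, 5 concentrations. 3) Linear interpolation between surrounding doses. 4) Unreached endpoint = highest concentration. The concentration for 50% growth inhibition is given as GI50. TGI denotes the concentration required for complete inhibition of growth.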

Regarding `CC(=O)OC1(C#N)CC2OC1C1C2N1C(=O)c1ccccc1` (stereo not drawn), the TGI in assay [1], in assay [2], in assay [3], in assay [4], in assay [5] and in assay [6] was more than 100 µM in each case. Further, the TGI in assay [7] and in assay [8] was more than 100 µM in each case.

On to `Cc1cc2c3ccccc3n(C)c2c2c1C(=O)c1ccccc1C2=O`, for which the TGI in [2] was 41.7 µM; in [3], 53.6 µM; in [4], 81.3 µM; in assay [9], more than 100 µM; in assay [5], more than 100 µM; in assay [6], 61.7 µM. For the same molecule, the TGI in assay [10] is 73.2 µM; in [7] it was 55.1 µM; in [8] it was 57.3 µM.

For the molecule `Nc1nc(-c2ccccc2)c(-c2ccccc2)c(-c2nc(N)nc(-c3ccccc3)c2-c2ccccc2)n1`, the TGI in assay [2], in [3], in [4], in assay [9], in assay [5] and in [6] was more than 100 µM in each case. In addition, the TGI in [10], in [7] and in [8] was more than 100 µM throughout.

As to `N/C(=N\O)c1ncc(-c2ccc(C(F)(F)F)cc2)c(NC2CCCCCC2)n1`, the GI50 was 8.66 µM and 2.66 µM in [1]; 5.79 µM and 3.05 µM in assay [2]; 7.5 µM and 6.53 µM in [3]; 2.49 µM in [4]; 6.51 µM and 3.13 µM in [9]; 7.05 µM in [6]. Also, the GI50 in assay [10] is 3.24 µM; in [7] it was 4.36 µM and 1.71 µM; in assay [8], 9.12 µM and 2.65 µM. In addition, the TGI worked out at 9.54 µM in assay [1]; 14.5 µM in assay [2]; 23.2 µM in assay [3]; 9.73 µM in assay [4]; 13.1 µM in assay [9]; 20.8 µM in assay [6]. Moreover, the TGI in assay [10] stood at 10.4 µM; in [7], 11.8 µM; in assay [8], 10.5 µM.

`O=C(Nc1cccc(Cl)c1)Nc1cccc(Cl)c1`: the GI50 was more than 100 µM in assay [2]; 21.9 µM in assay [3]; more than 100 µM in assay [4]; more than 100 µM in [6]; 2.26 µM in assay [10]; 3.23 µM in assay [7]. In addition, the GI50 in [8] was 3.69 µM. Moreover, the TGI was more than 100 µM in [2]; more than 88.8 µM in assay [3]; more than 100 µM in [4]; more than 100 µM in assay [6]; more than 100 µM in assay [10]; more than 100 µM in assay [7]. Also, the TGI in assay [8] is more than 100 µM.

On to `O=S(=O)(NCCNc1nccc(-c2c(-c3cccc(O)c3)nc3sccn23)n1)c1ccc(F)cc1`, for which the GI50 in assay [1] was 4.26 µM; in [2], 4.26 µM; in assay [3], 13.8 µM; in assay [4], 11.9 µM; in assay [9], 4.36 µM; in assay [6], 5.37 µM. Further, the GI50 in assay [10] is 2.66 µM; in assay [7], 3.88 µM; in assay [8], 0.26 µM. Further, the TGI in assay [1] came to 22.7 µM; in [2], 44.9 µM; in assay [3], 56.5 µM; in assay [4] it was 42.1 µM; in assay [9], 16.2 µM; in [6], 59 µM. The TGI in [10] was 32.4 µM; in [7], more than 100 µM; in [8], 10.3 µM.

Regarding `Cc1ccc2nc3c(Cl)cc(=O)cc-3sc2c1`, the TGI is 53.8 µM in assay [4]; 39.1 µM in assay [5]; 91.7 µM in assay [10]; 56.1 µM in [7]; 31.8 µM in assay [8].

Turning to `O=C1NC(=NCc2cccs2)SC1Cc1ccc2ncccc2c1` (stereo not drawn), the GI50 was 16.9 µM in [1]; more than 23.6 µM in assay [2]; 20.1 µM in [3]; more than 25 µM in assay [4]; 15.6 µM in assay [9]; more than 25 µM in assay [6]. Besides, the GI50 in [10] was 11.7 µM; in assay [7], 17.3 µM; in [8] it was 15 µM. The TGI in assay [1], in assay [2], in assay [3], in assay [4], in [9] and in assay [6] was more than 25 µM throughout. Besides, the TGI in assay [10], in assay [7] and in assay [8] was more than 25 µM each time.

In the case of `O=C1NC(=NCC(CO)c2ccccc2)S/C1=C\c1ccc2ncccc2c1` (stereo not drawn), the GI50 is 14.6 µM in assay [1]; 17.6 µM in assay [2]; 23.9 µM in [3]; more than 21.8 µM in assay [4]; 14.7 µM in assay [9]; more than 25 µM in assay [6]. Also, the GI50 in assay [10] is 19.7 µM; in assay [7], 10.6 µM; in [8] it was more than 25 µM. For the same molecule, the TGI in assay [1], in [2], in assay [3], in [4], in [9] and in [6] was more than 25 µM throughout. Further, the TGI in assay [10], in assay [7] and in assay [8] was more than 25 µM throughout.

In the case of `N=C(N)n1ncc(Cl)c(Cl)c1=O`, the TGI in assay [1] stood at 7.55 µM; in assay [2], 8.44 µM; in assay [4] it was 35.3 µM; in [9], 20.2 µM; in [5], 5.07 µM; in [6] it was 32 µM. Also, the TGI in assay [7] was 6.36 µM; in [8] it was 5.76 µM.

Regarding `C=C1CC[C@@H]2C(C)(C)[C@@H](O)CC[C@@]2(C)[C@@H]1COc1ccc2ccc(=O)oc2c1`, the GI50 in assay [1] was 8.75 µM; in assay [2], 14.1 µM; in [3], 15.2 µM; in assay [4] it was 15.3 µM; in [9], 12.3 µM; in [5] it was 10.6 µM. Besides, the GI50 in assay [10] is 8.61 µM; in assay [7], 6.43 µM; in assay [8], 10.2 µM. The TGI was found to be 65.7 µM in [1]; 30.8 µM in [2]; 35.6 µM in assay [3]; 43.4 µM in [4]; 29.1 µM in [9]; 25.6 µM in assay [5]. Also, the figures for the TGI in [10], in assay [7] and in [8] were 32.6 µM, more than 100 µM and 23.7 µM, respectively.

The values are drawn from PubChem BioAssay (NCI).
